The record followed here is US12552783B2, “Modulators of proteolysis and associated methods of use” (Arvinas Operations, Inc., priority 2018, dated 2026).

The test deals with KRas (Homo sapiens, UniProt P01116, G12C). Kind of test: KRas degradation in SW1573 cells by Western blot, normalized to GAPDH (data of Table 14). Format: cell-based. To be noted: SW1573 cells. In short, it runs like this:
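SW1573 cells, homozygous for the KRas G12C mutation and maintained in DMEM with 10% FBS and 1% penicillin-streptomycin, were seeded in 12-well plates, allowed to attach overnight at 37° C. under 5% CO2, then serum-starved for 24 hours before compound exposure. KRas levels were measured by Western blot, normalized to GAPDH, and compared with DMSO controls to give percent degradation, DC50 and Dmax.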
A general note: Immunoblotting shows a protein as a band on a membrane.

`C=CC(=O)N1CCN(c2nc(OC3CCN(CCOCCN4CCN(CC(=O)N[C@H](C(=O)N5C[C@H](O)C[C@H]5C(=O)N[C@@H](C)c5ccc(-c6scnc6C)cc5)C(C)(C)C)CC4)CC3)nc3c(F)c(-c4cc(O)cc5ccccc45)c(Cl)cc23)CC1` [compound 475, (2S,4R)-1-((2S)-2-(2-(4-(2-(2-(4-((4-(4-acryloylpiperazin-1-yl)-6-chloro-8-fluoro-7-(3-hydroxynaphthalen-1-yl)quinazolin-2-yl)oxy)piperidin-1-yl)ethoxy)ethyl)piperazin-1-yl)acetamido)-3,3-dimethylbutanoyl)-4-hydroxy-N-((S)-1-(4-(4-methylthiazol-5-yl)phenyl)ethyl)pyrrolidine-2-carboxamide]: the “Percent Degradation at Indicated Concentration (μM)” value (“Percent Degradation” below) (0.1 μM) is recorded as “C (Percent Degradation: C ≤ 35)”, the “Percent Degradation” value (0.3 μM) is given as “C (Percent Degradation: C ≤ 35)” and the “Percent Degradation” value (1 μM) is reported as “C (Percent Degradation: C ≤ 35)”.

Take `C=CC(=O)N1CCN(c2nc(OC[C@@H]3C[C@@H](OCCOCCOCCOCCOCC(=O)N[C@H](C(=O)N4C[C@H](O)C[C@H]4C(=O)N[C@@H](C)c4ccc(-c5scnc5C)cc4)C(C)(C)C)CN3C)nc3c2CCN(c2cccc4ccccc24)C3)C[C@@H]1CC#N` [compound 480]: the “Percent Degradation” value (0.1 μM) was “C (Percent Degradation: C ≤ 35)”, the “Percent Degradation” value (0.3 μM) is “C (Percent Degradation: C ≤ 35)” and the “Percent Degradation” value (1 μM) is given as “C (Percent Degradation: C ≤ 35)”.

By Dmax is commonly meant the largest share of the target that was removed. High values mean a fuller loss of target, low ones a partial loss of target. Molecule `C=CC(=O)N1CCN(c2nc(OC[C@@H]3C[C@@H](OCCOCCOCCOCCOc4ccc5c(c4)C(=O)N(C4CCC(=O)NC4=O)C5=O)CN3C)nc3c2CCN(c2cccc4ccccc24)C3)C[C@@H]1CC#N` (stereo partly drawn) [compound 481, 2-((2S)-1-acryloyl-4-(2-(((2S,4R)-4-(2-(2-(2-(2-((2-(2,6-dioxopiperidin-3-yl)-1,3-dioxoisoindolin-5-yl)oxy)ethoxy)ethoxy)ethoxy)ethoxy)-1-methylpyrrolidin-2-yl)methoxy)-7-(naphthalen-1-yl)-5,6,7,8-tetrahydropyrido[3,4-d]dipyrimidin-4-yl)piperazin-2-yl)acetonitrile] gave a Dmax of 35 to 70%. Besides, the “Percent Degradation” value (0.1 μM) is “C (Percent Degradation: C ≤ 35)”. Besides, under “0.3 μM”, the “Percent Degradation” value is listed as “C (Percent Degradation: C ≤ 35)”. Also, the “Percent Degradation” value (1 μM) is “B (35 < B < 70)”.

With `C=CC(=O)N1CCN(c2nc(OC[C@@H]3C[C@@H](OCCOCCOc4ccc5c(c4)C(=O)N(C4CCC(=O)NC4=O)C5=O)CN3C)nc3c2CCN(c2cccc4ccccc24)C3)C[C@@H]1CC#N` (stereo partly drawn) [compound 503, 2-((2S)-1-acryloyl-4-(2-(((2S,4R)-4-(2-(2-((2-(2,6-dioxopiperidin-3-yl)-1,3-dioxoisoindolin-5-yl)oxy)ethoxy)ethoxy)-1-methylpyrrolidin-2-yl)methoxy)-7-(naphthalen-1-yl)-5,6,7,8-tetrahydropyrido[3,4-d]pyrimidin-4-yl)piperazin-2-yl)acetonitrile], the “Percent Degradation” value reads like this: (0.03 μM) “C (Percent Degradation: C ≤ 35)”; (0.1 μM) “C (Percent Degradation: C ≤ 35)”; (0.3 μM) “C (Percent Degradation: C ≤ 35)”; (1 μM) “C (Percent Degradation: C ≤ 35)”.
